Test results as given in patent publication US12161666B2, “Composition comprising cinnamaldehyde and zinc to improve swallowing” (SOCIÉTÉ DES PRODUITS NESTLÉ S.A., priority 2014, dated 2024).

Columns and labels:
[1] = molecular target: T1, hTRPA1 expressed in CHO cells (Homo sapiens, UniProt O75762); test: in vitro activity of hTRPA1 expressed in CHO cells, intracellular calcium measured with a fluorescent dye; format: cell-based; parameters: efficacy on hTRPA1 according to dose-response curve: dose or concentration left out as unconfirmed
T1 construct: expressed in transfected cells; host or cells: CHO cells
T1 sequence (O75762 whole entry): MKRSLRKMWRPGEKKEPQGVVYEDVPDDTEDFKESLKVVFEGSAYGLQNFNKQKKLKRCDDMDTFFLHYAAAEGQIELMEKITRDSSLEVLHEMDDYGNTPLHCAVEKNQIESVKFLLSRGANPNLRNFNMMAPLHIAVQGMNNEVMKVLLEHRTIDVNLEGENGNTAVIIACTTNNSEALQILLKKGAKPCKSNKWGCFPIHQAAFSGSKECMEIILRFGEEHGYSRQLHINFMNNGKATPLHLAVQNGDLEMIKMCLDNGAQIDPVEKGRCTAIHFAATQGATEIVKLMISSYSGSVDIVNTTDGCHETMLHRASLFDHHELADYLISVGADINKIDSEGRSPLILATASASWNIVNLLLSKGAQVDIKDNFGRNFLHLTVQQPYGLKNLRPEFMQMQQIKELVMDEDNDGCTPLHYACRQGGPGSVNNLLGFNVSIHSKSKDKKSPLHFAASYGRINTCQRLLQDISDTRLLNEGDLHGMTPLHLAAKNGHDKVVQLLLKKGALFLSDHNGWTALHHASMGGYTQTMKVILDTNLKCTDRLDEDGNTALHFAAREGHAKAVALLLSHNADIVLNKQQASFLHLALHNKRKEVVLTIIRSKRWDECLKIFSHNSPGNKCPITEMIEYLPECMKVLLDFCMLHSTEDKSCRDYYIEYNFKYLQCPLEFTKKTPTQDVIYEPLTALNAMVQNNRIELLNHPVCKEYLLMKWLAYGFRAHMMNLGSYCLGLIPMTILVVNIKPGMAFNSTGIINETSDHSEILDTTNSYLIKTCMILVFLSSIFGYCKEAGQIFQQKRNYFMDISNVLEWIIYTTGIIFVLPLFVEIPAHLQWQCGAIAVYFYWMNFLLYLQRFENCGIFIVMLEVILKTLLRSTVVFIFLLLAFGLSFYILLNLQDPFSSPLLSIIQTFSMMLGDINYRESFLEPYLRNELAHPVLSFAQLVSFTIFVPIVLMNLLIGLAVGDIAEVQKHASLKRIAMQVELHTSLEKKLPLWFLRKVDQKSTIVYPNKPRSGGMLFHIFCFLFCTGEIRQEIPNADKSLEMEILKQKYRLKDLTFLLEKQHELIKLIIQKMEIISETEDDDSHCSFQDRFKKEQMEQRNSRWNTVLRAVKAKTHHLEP
Experimental: The in vitro activity of hTRPA1 expressed in CHO cells was measured for 10 μM cinnamaldehyde and 0.3 μM zinc individually, as well as the combination.

[2] = molecular target: TRPM8 (Homo sapiens, UniProt Q7Z2W7); conditions: cited from earlier work
Chain of TRPM8 (Q7Z2W7 whole entry, species assumed): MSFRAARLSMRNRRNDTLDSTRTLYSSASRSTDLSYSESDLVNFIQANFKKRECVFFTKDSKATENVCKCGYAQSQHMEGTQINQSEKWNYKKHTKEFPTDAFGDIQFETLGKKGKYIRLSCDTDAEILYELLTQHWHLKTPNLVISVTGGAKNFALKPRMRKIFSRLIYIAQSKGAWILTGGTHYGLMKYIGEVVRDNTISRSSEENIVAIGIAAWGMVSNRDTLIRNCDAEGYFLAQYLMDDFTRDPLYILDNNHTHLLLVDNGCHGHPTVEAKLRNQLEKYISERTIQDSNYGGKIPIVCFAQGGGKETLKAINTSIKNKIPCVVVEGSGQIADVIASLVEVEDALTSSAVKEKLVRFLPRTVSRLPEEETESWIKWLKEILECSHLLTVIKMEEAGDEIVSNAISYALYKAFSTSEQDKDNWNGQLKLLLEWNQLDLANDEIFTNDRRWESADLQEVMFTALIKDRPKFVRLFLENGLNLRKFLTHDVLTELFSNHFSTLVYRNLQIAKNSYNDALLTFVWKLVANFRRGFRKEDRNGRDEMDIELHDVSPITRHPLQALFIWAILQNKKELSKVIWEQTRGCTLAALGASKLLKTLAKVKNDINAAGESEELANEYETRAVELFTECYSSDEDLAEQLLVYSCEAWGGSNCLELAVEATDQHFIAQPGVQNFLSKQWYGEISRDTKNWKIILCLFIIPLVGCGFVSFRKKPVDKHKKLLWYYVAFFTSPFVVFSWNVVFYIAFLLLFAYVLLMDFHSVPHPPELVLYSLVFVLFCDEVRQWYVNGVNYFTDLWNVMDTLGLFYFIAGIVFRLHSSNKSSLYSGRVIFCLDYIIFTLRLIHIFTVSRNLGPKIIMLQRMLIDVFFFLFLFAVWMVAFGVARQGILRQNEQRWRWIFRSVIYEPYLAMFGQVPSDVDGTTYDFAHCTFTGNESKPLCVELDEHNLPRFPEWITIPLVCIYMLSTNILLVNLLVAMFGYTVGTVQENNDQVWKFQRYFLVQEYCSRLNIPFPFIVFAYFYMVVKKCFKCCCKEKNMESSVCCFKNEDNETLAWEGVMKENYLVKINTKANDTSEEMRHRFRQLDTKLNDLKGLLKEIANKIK

[3] = molecular target: TRPA1 (Homo sapiens, UniProt O75762); conditions: read-out: EC50 of TRPA1 activation; cited from earlier work
Chain of TRPA1 (O75762 whole entry, species assumed): as the sequence (O75762 whole entry) above

[4] = molecular target: TRPV1 (Homo sapiens, UniProt Q8NER1); conditions: cited from earlier work
Chain of TRPV1 (Q8NER1 whole entry, species assumed): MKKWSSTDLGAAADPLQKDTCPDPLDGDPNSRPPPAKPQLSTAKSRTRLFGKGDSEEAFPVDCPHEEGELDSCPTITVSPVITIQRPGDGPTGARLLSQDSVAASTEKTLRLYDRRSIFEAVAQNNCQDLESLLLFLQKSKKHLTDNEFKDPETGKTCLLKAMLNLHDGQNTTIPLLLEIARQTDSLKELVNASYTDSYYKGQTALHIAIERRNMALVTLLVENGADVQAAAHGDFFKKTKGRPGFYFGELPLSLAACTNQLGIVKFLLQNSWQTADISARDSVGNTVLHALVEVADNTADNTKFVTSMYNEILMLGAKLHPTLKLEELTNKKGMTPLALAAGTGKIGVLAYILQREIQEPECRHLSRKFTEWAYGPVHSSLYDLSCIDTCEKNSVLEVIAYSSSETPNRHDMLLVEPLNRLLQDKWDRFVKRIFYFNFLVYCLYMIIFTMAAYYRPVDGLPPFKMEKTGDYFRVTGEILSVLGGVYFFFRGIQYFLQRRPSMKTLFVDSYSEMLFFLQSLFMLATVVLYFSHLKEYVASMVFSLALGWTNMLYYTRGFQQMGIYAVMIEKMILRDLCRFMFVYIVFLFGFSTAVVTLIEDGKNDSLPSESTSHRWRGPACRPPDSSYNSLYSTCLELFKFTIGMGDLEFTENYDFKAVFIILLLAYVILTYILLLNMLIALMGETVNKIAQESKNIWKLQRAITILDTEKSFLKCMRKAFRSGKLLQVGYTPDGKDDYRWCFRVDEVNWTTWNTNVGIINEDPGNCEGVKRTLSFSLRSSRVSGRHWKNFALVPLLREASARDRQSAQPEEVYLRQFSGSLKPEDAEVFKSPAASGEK

[5] = oral administration; cited from earlier work

zinc
concentration of zinc required for the synergy with cinnamaldehyde on TRPA1 ([1]; in vitro): < 1 µM

O=CC=Cc1ccccc1 [cinnamaldehyde]
activation of TRPM8 [2]: not TRPV1 or TRPM8 | EC50 [3]: ~10 µM | activation of TRPV1 [4]: not TRPV1 | efficacy on hTRPA1 according to dose-response curve ([1]; positive control C+, CHO cells): maximum efficacy

COc1cc(CNC(=O)CCCC/C=C/C(C)C)ccc1O [capsaicin]
promotion of swallow reflex [5]: shown to promote a swallow reflex
